Results as given in patent publication US20030157026A1, “Photodynamic diagnosis and therapy for insulin-dependent diabetes mellitus” (priority 2001, published 2003).

Assays:
Format in all cases: in vivo
[1] = system: BB rats with onset of IDDM; experiment: Test Example 3: photodynamic therapy of IDDM in BB rats (664-nm laser light), survival rate
Experimental: From 60 days after birth, BB rats (16 rats per group) were examined every day for the urine sugar level and blood sugar level, to confirm the time of the onset of IDDM. […] Photodynamic therapy of IDDM was thus conducted once, and thereafter, the survival rate (%) of the BB rats were evaluated during the breeding for subsequent […].
On the other hand, the survival rate (%) of the control group of rats (untreated) was about 65% on Day 6 after the start of the test, and all rats had died on Day 22 after the start of the test.
The survival rate (%) of rats under test was evaluated by the following equation: [formula]

[2] = system: macrophages having infiltrated the islets of Langerhans; experiment: Test Example 1: fluorescence localisation in frozen pancreatic sections after i.v. administration to BB rats with onset of IDDM; conditions: 5 mg/kg via tail vein, pancreas excised 1 hour after administration, 664 nm laser (same result with 405 nm UV / 672 nm fluorescence)
Excerpt: From 60 days after birth, the BB rats were examined every day for the urine sugar level and blood sugar level by using GLUTEST SENSOR (Sanwa Kagaku Co., Ltd., Japan). […] The excised pancreases were frozen in dry ice/acetone, to prepare frozen pancreatic sections of 5 μm in thickness. The frozen pancreatic sections were irradiated with a semiconductor laser light of 664 nm (Matsushita Industrial Equipment Co., Ltd., Japan). An image of fluorescence as emitted by mono-L-aspartyl chlorin e6 in the frozen pancreatic section was observed under a fluorescence microscope equipped with a notched filter for cutting 664 nm wavelength (made by Carl Zeiss). […]
Further, the places of the pancreas section which indicated the previously observed fluorescence of mono-L-aspartyl chlorin e6 were confirmed to be consistent with the sites where the macrophages were present in the pancreas sections. […] When a method comprising irradiation of a UV ray of a wavelength of 405 nm and observing a fluorescence at 672 nm with a cut filter for cutting light rays of wavelengths of not more than 600 nm was used for the observation of the fluorescence of mono-L-aspartyl chlorin e6, there could again be obtained the same result as that obtained in the above-described method comprising irradiation of the 664-nm semiconductor laser.

[3] = system: macrophages having infiltrated the inflammatory sites of Langerhans islets; experiment: Uptake of conventional PDT photosensitizers into macrophages in the pancreas of a mammal with IDDM; conditions: no test described
[4] = BB rats treated by the photodynamic therapy

tetrasodium salt of mono-L-aspartyl chlorin e6
long-term survivors ([1]; BB rats, 5 mg/kg i.v. plus 664-nm laser, all control rats had died on Day 22): several rats surviving still after Day 35
survival curve compared with untreated control group ([1]; BB rats, 5 mg/kg i.v., 24 h later 664-nm laser 50 J/cm^2, once): evident prolongation of their survival curve
survival rate (%) on Day 6 after the start of the therapy ([1]; BB rats, 5 mg/kg i.v., 24 h later 664-nm laser 50 J/cm^2 transcutaneously, once, untreated control about 65%): 100%

C=Cc1c(C)c2cc3nc(c(CC(=O)N[C@@H](CC(=O)[O-])C(=O)[O-])c4[nH]c(cc5nc(cc1[nH]2)C(C)=C5CC)c(C)c4C(=O)[O-])[C@@H](CCC(=O)[O-])[C@@H]3C.[Na+].[Na+].[Na+].[Na+] [mono-L-aspartyl chlorin e6]
uptake and accumulation of the administered photosensitizer (fluorescence image vs macrophage antibody staining) [2]: uptaken into and accumulated specifically in the macrophages having infiltrated the islets of Langerhans
blood sugar level compared with control group [1, 4]: blood sugar level had changed at slightly lower stages
progress of Langerhans islet inflammation (pancreatic insulitis) [1, 4]: pancreatic insulitis was suppressed by the PDT
insulin production ([1]; BB rats treated by the photodynamic therapy vs control): tendency to delay the disappearance of insulin production

C=Cc1c(C)c2cc3nc(c(CC(=O)O)c4[nH]c(cc5nc(cc1[nH]2)C(C)=C5CC)c(C)c4C(=O)O)[C@@H](CCC(=O)O)[C@@H]3C [chlorin e6]
uptake into macrophages when each singly administered [3]: selectively be uptaken by and into the macrophages

CCOC(=O)C1=Cc2c3nc(cc4nc(cc5[n-]c(cc6[n-]c2c(C)c6CC)c(C)c5CC)C(C)=C4CC)[C@@H](C)[C@]13CC.[Cl-].[Cl-].[Sn] (racemic) [rostaporfin]
uptake into macrophages when each singly administered [3]: selectively be uptaken by and into the macrophages

CC(=O)[O-].CC(=O)[O-].CCc1c(CC)c2cc3nc(cnc4cc(OCCOCCOCCOC)c(OCCOCCOCCOC)cc4ncc4nc(cc1[n-]2)C(CCCO)=C4C)C(C)=C3CCCO.O.[Lu+3] [motexafin lutetium]
uptake into macrophages when each singly administered [3]: selectively be uptaken by and into the macrophages

porfimer sodium
uptake into macrophages when each singly administered [3]: selectively be uptaken by and into the macrophages

C=CC1=C(C)C2=CC3=C(/C=C/NO)C(C)(O)C(=CC4=NC(=CC5=NC(=CC1=N2)C(C)=C5CCC(=O)N[C@@H](CC(=O)[O-])C(=O)[O-])C(CCC(=O)N[C@@H](CC(=O)[O-])C(=O)[O-])=C4C)N3.[Na+].[Na+].[Na+].[Na+] (stereo partly drawn) [ATX-S10]
uptake into macrophages when each singly administered [3]: selectively be uptaken by and into the macrophages
